The test deals with TDI-induced dermatitis in BALB/c mice. Description: toluene-2,4-diisocyanate (TDI) induced dermatitis model, topical treatment of the ear. The settings on record: for inhibition of various parameters: standard reference compounds, dose not stated. The format is in vivo, female BALB/c mice. On the procedure:
The sensitization protocol was as per W. Baumer et al., J Pharm Pharmacol., 55(8):1107-14 (2003). The abdominal region was shaved and depilated using Veet. Subsequently, the horny layers were stripped 10 times with adhesive tape. For active sensitization, 100 μl of 5% TDI was applied to the stripped skin for 3 consecutive days.
Prescreening was performed 21 days later. In brief, the sensitized mice were challenged with an application of 10 μl of 0.5% TDI on both the inner and outer surface of the left ear, the right ear served as control in each mouse. Ear thickness was measured with a cutimeter (Model7309, Mitutoyo Japan) prior to challenge and 24 hours after challenge. […] Animals were rested for 7 days after prescreening, to allow for the ear thickness to return to normal.
Five groups (A-E) were studied.
On day 28, test compounds. GRC-CPD-A (0.3, 3 and 10%) were prepared using DMSO and acetone in the ratio of 1:9 as solvents. 20 μl (10 μl on each side of the ear) of the formulation was applied to the left ear of each mouse as per the study design 6 hours prior to challenge with TDI. 20 μl of TDI was applied to both inner and outer surface of the left ear of each mouse. The right ear served as control and received an application of 10 μl of acetone on each side. 24 hours post TDI challenge ear thickness was determined and ears were collected for histology and eosinophil peroxidase (EPO) determination. Ear sections were processed for histology and stained with hematoxylin-eosin (HE) and lesions were scored as follows: 0=no cell infiltration or edema, 1-4-granulocyte infiltration/oedema depending on severity. A combined congo-red-toluidine blue staining was also carried out to identify eosinophils which were then quantified per 12 high power fields (hpf). EPO levels in ear sections were determined by standard […] assay using […] as substrate.
All data were expressed as mean±SEM. All groups were subjected to one-way ANOVA and means were compared using Dunnett's post hoc test using GraphPad prism software.

Setting [1] is: conclusion, in a dose dependent manner (0.3, 3 and 10% topical).

As to `CC(C)(C)NC(=O)c1nn(-c2ccc(F)cc2F)c2c1[C@H]1CC[C@@H]2C1` [GRC-CPD-A, (1R,7S)—N5-(tert-butyl)-3-(2,4-difluorophenyl)-3,4-diazatricylco[5.2.1.0^2,6]deca-2(6),4-diene-5-carboxamide], under setting [1], the EPO levels result was “effectively inhibits”; the “ear swelling (oedema and eosinophil infiltration)” value was “effectively inhibits”. For the same compound, the “inhibition of ear swelling” value (topical application of 10%, 6 hours prior to TDI challenge, ear thickness 24 hours post TDI challenge, FIG. 1) was “significant (p<0.001) dose-dependent inhibition”. Further, the histological scores entry (topical application of 10%, HE-stained ear sections, lesion score 0-4, 24 hours post TDI challenge, FIG. 2) is “improved”. Further, the “EPO levels in the ear” value (topical application of 10%, eosinophil peroxidase in ear sections, 24 hours post TDI challenge, FIG. 4) was “inhibited”. Moreover, the eosinophil infiltration entry (topical application of 10%, eosinophils per 12 hpf in ear sections, 24 hours post TDI challenge, FIG. 3) was “inhibited”.

Consider `C[C@]12CCC(=O)C=C1CC[C@@H]1[C@@H]2[C@@H](O)C[C@@]2(C)[C@H]1CC[C@]2(O)C(=O)CO` [hydrocortisone, reference compound], for which the “inhibition of various parameters” value is “significant inhibition”.

In the case of `C=CC[C@@H]1/C=C(\C)C[C@H](C)C[C@H](OC)[C@H]2O[C@@](O)(C(=O)C(=O)N3CCCC[C@H]3C(=O)O[C@H](/C(C)=C/[C@@H]3CC[C@@H](O)[C@H](OC)C3)[C@H](C)[C@@H](O)CC1=O)[C@H](C)C[C@@H]2OC` [tacrolimus, reference compound], the “inhibition of various parameters” value is listed as “significant inhibition”.
